Source: the NIST ThermoML archive (doi:10.1016/j.jct.2017.03.002)

Assays:
[1] = for surface tension liquid-gas: Capillary rise; for vapor or sublimation pressure: Closed cell (Static) method
[2] = xn = mol fraction of the nth substance listed; conditions: Capillary rise

CC [ethane]
[1]
Conditions	surface tension liquid-gas [mN/m]
274.62 K	2.95
279.17 K	2.4
283.79 K	1.85
291.25 K	1.05
293.15 K	0.95
294.16 K	0.91
295.04 K	0.81
297.18 K	0.62
299.13 K	0.43
301.25 K	0.27
303.1 K	0.13

[1]
Conditions	Critical pressure [kPa]	Critical temperature [K]	vapor or sublimation pressure [kPa]
274.62 K, Liquid	–	–	2472.5
279.17 K, Liquid	–	–	2753.2
283.79 K, Liquid	–	–	3060.9
291.25 K, Liquid	–	–	3615.2
293.15 K, Liquid	–	–	3764.3
294.16 K, Liquid	–	–	3848
295.04 K, Liquid	–	–	3919.9
297.18 K, Liquid	–	–	4105.5
299.13 K, Liquid	–	–	4277.5
301.25 K, Liquid	–	–	4471.9
303.1 K, Liquid	–	–	4650.3
304.95 K, Liquid	–	–	4832.5
Liquid, Direct measurement	4870	–	–
Liquid, Visual observation in a stirred cell	–	305.39	–

C [methane] + CCC
[2]
Conditions	surface tension liquid-gas [mN/m]
272.08 K, x1 = 0.139	7.06
272.1 K, x1 = 0.45	1.71
272.14 K, x1 = 0.0508	9.38
272.24 K, x1 = 0.105	7.99
272.25 K, x1 = 0.32	3.54
272.28 K, x1 = 0.493	1.36
272.29 K, x1 = 0.265	4.85
272.33 K, x1 = 0.391	2.63
272.34 K, x1 = 0.206	5.99
272.35 K, x1 = 0.554	0.51
285.35 K, x1 = 0.0217	7.89
285.37 K, x1 = 0.0609	7.13
285.39 K, x1 = 0.398	1.57
285.5 K, x1 = 0.323	2.35
285.5 K, x1 = 0.525	0.34
285.55 K, x1 = 0.279	3.1
285.55 K, x1 = 0.474	0.76
285.65 K, x1 = 0.165	5.02
285.76 K, x1 = 0.122	6.1
303.15 K, x1 = 0.117	4.12
303.35 K, x1 = 0.318	1.27
303.37 K, x1 = 0.389	0.62
303.37 K, x1 = 0.433	0.27
303.45 K, x1 = 0.201	2.99

CCC [propane]
[1]
Conditions	surface tension liquid-gas [mN/m]
270.51 K	10.4
271.77 K	10.3
280.13 K	9.28
285.35 K	8.37
287.35 K	8.37
289.65 K	8.09
291.75 K	7.78
297.98 K	7.12
300.92 K	6.57
303.37 K	6.48
314.06 K	4.99

[1], Liquid
Conditions	vapor or sublimation pressure [kPa]
270.51 K	437.5
271.77 K	456
280.13 K	583.7
285.35 K	680.6
287.35 K	715.4
289.65 K	762.1
291.75 K	806.2
297.98 K	948.2
300.92 K	1021.2
303.37 K	1083.1
314.06 K	1398

CCC [propane] + C
[2], x2 = 0
Conditions	surface tension liquid-gas [mN/m]
271.77 K	10.3
285.35 K	8.37
303.37 K	6.48
